Reference: US20090318396A1, “CORTICOSTEROID LINKED BETA-AGONIST COMPOUNDS FOR USE IN THERAPY” (priority 2008, published 2009)

Columns and labels:
[1] = Stability of steroid C-21 esters, carbonates and carbamates in rat lung homogenate; settings: for Mean [Parent] (nM) at 2 hrs, 37° C.: parent compound; for Mean % compound remaining at 2 hrs, 37° C.: 900 nM, n=3
Protocol: Lungs from Fischer 344 rats were obtained fresh by overnight delivery at 4° C. from BioReclamation Inc. (Hicksville, N.Y.). Lungs were weighed and homogenized in a 1:3 w/v ratio with sterile phosphate buffered saline (PBS, 10 mM, pH 7.4) in glass vials on ice. After centrifugation at 3,000×g for 10 min at 4° C. the supernatant was decanted into sterile conical tubes and placed on ice. The total protein content of the supernatant was determined by the bicinchoninic acid (BCA) method (Pierce Biotechnology, Rockford, Ill.), using bovine serum albumin (BSA) as the standard. Lung homogenates were prepared to a final concentration of 1 mg total protein/mL in 10 mM PBS, pH 7.4.
Heat-inactivation was achieved by incubation at 80° C. for 30 min, after which the homogenate was allowed to cool to room temperature, stored overnight at 4° C. The homogenate was used for the assay and standard curve preparations. Before use, each homogenate preparation was equilibrated for 15 min in a 37° C. water bath. […] DMSO (2.7 uL) added to 3 mL of temperature-equilibrated homogenate served as a control. Aliquots (100 uL) of homogenate+compound were added to 400 μL quenching solution consisting of 100% HPLC-grade acetonitrile+500 ng/mL glyburide for the zero time point (n=3 for each time point).
The glyburide served as an internal LC/MS/MS standard. The remainder of each drug+homogenate solution was aliquoted into a 96-well tissue culture plates. After an additional 30 min and 120 min incubation at 37° C., 100 μL aliquots were added to 400 μL quenching solution. Denatured proteins in the quenching solution were separated by centrifugation at 3000×g for 2 min at 4° C., and 160 μL of the supernatants were transferred to new 96-well plate for analysis by LC/MS/MS. Collection plates were covered with plastic film and were kept on ice. For storage, covered plates were and kept stored at −80° C. until further use.
An aliquot of 50 μL of each sample was diluted with 50 μL of water containing internal standard at 4° C. The diluted samples were then centrifuged for 20 minutes at 3000 rpm at 4° C. An aliquot of 20 μL of the solution was injected into the TSQ Ultra Quantum.
LC/MS/MS system. The compounds were separated by HPLC using a HyPurity C18 HPLC column (30×2.1 mm, 5μ) from ThermoHypersil. A Multiplex LX-2 HPLC system (Cohesive Technologies, Franklin, Mass.) with two identical Agilent 1100 series binary pumps (P/N G1312A) were used for elution and separation. Samples were maintained at 4° C. in an HTS Pal autosampler (LEAP Technologies, Carrboro, N.C.) in order to reduce any potential spontaneous hydrolysis of the compounds before injection onto the HPLC. The analytes were eluted using the following mobile phases; Mobile phase A contained 1% acetonitrile in 10 mM ammonium formate aqueous solution with 1% formic acid. Mobile phase B contained 80% acetonitrile in 10 mM ammonium formate with 1% formic acid. The HPLC elution program used to elute the analytes was as follows:
The samples were further analyzed by tandem mass spectrometry using a TSQ Quantum Ultra triple quadrupole mass spectrometer (Thermo Finnigan, San Jose, Calif.) using a selective reaction monitoring (SRM) scan type. The mass spectrometry parameters used were as follows:
Nine-point standard curves for each test compound were prepared and analyzed in heat-inactivated lung homogenate. […] The data expressed in Table 2 represent the mean (n=3) percent remaining compound in both types of homogenate at 2 hours, 37° C.

[2] = test system: Ascaris suum antigen-induced bronchoconstriction and airway hyperreactivity; experiment: Ascaris suum-induced pulmonary responses in sheep; format: in vivo; settings: for Effect on late phase bronchoconstriction and development of airway hyperreactivity: duration of action regimen
Protocol: (§1) One breath unit is defined as one breath of a 1% w/v carbachol solution. Test article was administered either by a pre-dosing or duration of action protocol. In the pre-dosing regimen, animals were dosed once daily for four days, with the last dose administered 1 hr before antigen. In the duration of action regimen, animals were dosed once daily for four days, with the last dose administered 24 hours before antigen. Test article, Ascaris antigen, and carbachol were administered by nebulized aerosol to intubated sheep.

[3] = test system: tobacco-smoke-induced airway inflammation; experiment: Tobacco smoke model of airway inflammation in mice; format: in vivo, female C3H mice; settings: mean ± s.e.m.
Protocol: Vehicle and test articles are delivered by intratracheal instillation in 10% ethanol water to animals anesthetized with 3-5% isoflurane (n=8 animals per test article group). All compounds will be delivered on a daily (5 days per week) schedule for 3 weeks during the smoke exposures. Mice were exposed to cigarette smoke for 6 hours per day, 5 days per week for 3 weeks, in H1000 or H2000 chambers. Type 2R4F research cigarettes (Kentucky Tobacco Research and Development Center) were used in the study. Total particulate material (TPM) exposure was kept at […] for the first week to allow animals to reduce adverse effects during adaptation to smoke exposure. TPM exposure was maintained between 100 and 250 mg TPM/m^3 during the remainder of the study. After 3 weeks, animals were euthanized and bronchoalveolar lavage fluid was obtained for cell differentials and cytokine analysis by Luminex multiplex immunoassay.

[4] = test system: ovalbumin-induced lung inflammation; experiment: Mouse ovalbumin model of lung inflammation; format: in vivo, Mice (Balb/c); settings: 3.0 mg/kg IT, 1x/day day 14 and 15; mouse OVA
Protocol: Mice (Balb/c) were immunized by intraperitoneal injection of ovalbumin (10 μg OVA suspended in 2 mg aluminum hydroxide) on day 0 and 7. One group was sensitized and treated with vehicle (NSV). One group was immunized with sterile water only and treated with vehicle, e.g. to serve as a nonsensitized (negative) control (Vehicle). […] On days 14 and 15, the animals were exposed to OVA by inhalation (3 h; 5 mg/m^3). Forty eight hours following the last OVA challenge (day 17) mice were sacrificed. Bronchoalveolar lavage (BAL) was taken from each animal to collect cells and fluid. Cell numbers and differentials were calculated from BAL.

[5] = test system: ragweed-induced bronchoconstriction; experiment: Ragweed-induced bronchoconstriction in dogs; format: in vivo, beagle dogs; settings: mean ± s.e.m.
Protocol: The compound of Example 52 was assesed for bronchodilator activity in a ragweed-induced bronchoconstriction model in beagle dogs. Dogs were mechanically ventilated during each experiment. Airflow and tidal volume were measured using a differential pressure transducer located in front of the endotracheal tube. An esophageal balloon catheter placed in the esophagus was used to determine transpulmonary pressure. Pulmonary resistance and dynamic lung compliance were calculated from the simultaneous measurement of transpulmonary pressure and respiratory flow. The canine exposure system was designed to expose an anesthetized animal via an intubation tube. Dogs were administered vehicle or test article by inhalation 30 minutes before ragweed antigen exposure (n=4). Dogs were challenged with ragweed antigen (ragweed short, Ambrosia artemisifolia, Greer, Lenoir, N.C.) by inhalation (5 breaths). Immediately following ragweed challenge, changes in pulmonary resistance and compliance were measured for up to 30 minutes.

[6] = test system: LPS-induced airway inflammation; experiment: LPS-induced airway inflammation in rats; format: in vivo, Male Fischer 344 rats
Protocol: Example 52 was evaluated in an LPS-induced airway inflammation model in rats. Male Fischer 344 rats (n 8/group) were treated with either vehicle or test article by intratracheal instillation in […] volume 1 hour prior to LPS challenge. Animals were then exposed to LPS by nose-only inhalation exposure for 10 minutes at 5 mg/m^3 resulting in an estimated 5 μg lung deposition. Animals were sacrificed 4 hours after LPS exposure. Lungs were lavaged for bronchoalveolar lavage cell differentials and cytokine analysis by Luminex multiplex immunoassay.

[7] = test system: carbachol-induced bronchoconstriction; experiment: Carbachol-induced bronchoconstriction in sheep; format: in vivo; settings: Example 52 4.7 mg, Salmeterol 2.5 mg, mean ± s.e.m, n=4
Protocol: as §1, with “Bronchoconstriction was evaluated” for “One breath unit is defined”, “a function” for “one breath”, “increased pulmonary resistance following” for “a 1% w/v”, “challenge. […]” for “solution.”, “carbachol challenge.” for “antigen.”, “article” for “article, Ascaris antigen,”

[8] = Drug levels in plasma, BALF and lung after IT administration in the rat
Protocol: Compounds of Examples 52 and 83 were formulated for intratracheal (IT) dosing in 10% EtOH, 90% Sterile Water, and dosed in male Sprague-Dawley rats at 3 mg/kg (Example 52) and 1 mg/kg (Example 83). Each dosing group consisted of 3 male, naïve purebred Sprague-Dawley rats. At dosing, the animals weighed ˜0.30 kg. The animals were fasted overnight prior to dose administration and up to 2 hr after dosing. The compounds were administered IT using a Penn Century Microsprayer (Model 1A-1B).
Blood samples were collected at 0.5, 2, and 4 hours post-dose. Each blood sample (0.5-0.6 mL per sample) was collected via the orbital sinus (following anesthesia for BAL procedure) into tubes containing EDTA anti-coagulant into containers surrounded by dry ice at 0.5, 2 and 4 hr (mean, n=6). Blood samples were stored at −20±5° C. until shipped for analysis.
The animals were anesthetized with an intramuscular (IM) injection of a ketamine/xylazine/acepromazine (80/10/2 mg/kg) cocktail at a dose volume of 1.1 mL/kg. A cannula (modified Bard® infant feeding tube) was inserted into the trachea. Warmed sterile saline was injected into the lungs. The lungs were gently massaged by palpation of the chest for approximately 45 seconds. The fluid (BALF) was recovered and placed on ice. The procedure was repeated two more times, and all three BALF samples pooled. The fluid was centrifuged under refrigerated conditions at 350 g for 10 minutes. The supernatant and cell pellet were collected and stored at approximately −70° C. until shipped for analysis.
Immediately following each BAL procedure, the lungs from each animal were removed, blotted dry, weighed, and stored frozen at −70° C. until shipped for analysis.
An LC/MS/MS method was used to measure the concentration of compound in plasma.
Add 3×w/v of 1×PBS buffer (90:10-PBS:ACN) to each lung tissue. Homogenize the sample w/Polytron (PT1200) and take 50 uL of supernatant and inject to LC/MSMS.
An aliquot of 50 μL of each plasma sample was treated with 100 mL of acetonitrile (ACN) containing internal standard. After the protein precipitation, an aliquot of 100 μL of the supernatant was transferred to a clean 96-well plate and mixed with 100 μL of water. An aliquot of 30 μL of the above solution was injected to the TSQ Ultra Quantum LC/MS/MS system.
A HyPurity C18 HPLC column (30×2.1 mm, 5μ) from ThermoHypersil (Part #: 22105-032130) was used. Mobile phase A contained 1% acetonitrile in 10 mM ammonium formate aqueous solution with 1% formic acid. Mobile phase B contained 80% acetonitrile in 10 mM ammonium formate with 1% formic acid. An Agilent 1100 series binary pump (P/N G1312A Bin Pump) was used for elution and separation. HTS Pal autosampler from LEAP Technologies, Carrboro, N.C. was used.
TSQ Quantum Ultra triple quadrupole mass spectrometer from Thermo Finnigan, San Jose, Calif. was used in selective reaction monitoring (SRM) operation mode, Tune file:

[9] = Inactive (heat-inactivated) rat lung homogenate
[10] = Duration of action regimen (last dose 24 hours before antigen), Post-Ascaris, Example 52 4.7 mg, ciclesonide 2.2 mg, salmeterol xinafoate 2.5 mg, n=4
[11] = Duration of action regimen, 1 hour, n=4
[12] = Duration of action regimen, 2 hours, n=4
[13] = Duration of action regimen, 3 hours, n=4
[14] = Duration of action regimen, 4 hours, n=4
[15] = Duration of action regimen, 5 hours, n=4
[16] = Duration of action regimen, 6 hours, n=4
[17] = Duration of action regimen, 6.5 hours, n=4
[18] = Duration of action regimen, 7 hours, n=4
[19] = Duration of action regimen, 7.5 hours, n=4
[20] = Duration of action regimen, 8 hours, n=4
[21] = Duration of action regimen, Baseline, Example 52 4.7 mg, ciclesonide 2.2 mg, salmeterol xinafoate 2.5 mg, n=4
[22] = Duration of action regimen, Post-Antigen, n=4
[23] = 0.51 mg/kg i.t. daily, 3 weeks smoke
[24] = 10 μg/kg by inhalation 30 minutes before ragweed, n=4
[25] = analyte after IT administration of Example 83, 1 mg/kg, 0.5 hr
[26] = analyte after IT administration of Example 83, 1 mg/kg, 2.0 hr
[27] = analyte after IT administration of Example 83, 1 mg/kg, 4.0 hr

With `CC(C)C(=O)OCC(=O)[C@@]12O[C@H](C3CCCCC3)O[C@@H]1C[C@H]1[C@@H]3CCC4=CC(=O)C=C[C@]4(C)[C@H]3[C@@H](O)C[C@@]12C` [Ciclesonide, ciclesonide] the “Mean [Parent] (nM) at 2 hrs, 37° C.” value ([1]; Active homogenate) was 18 nM, the “Mean % compound remaining at 2 hrs, 37° C.” value (from here on “Mean % compound remaining”) ([1]; Active rat lung homogenate) was 12% and the “Mean % compound remaining” value [1, 9] was 88%. For the same molecule, the “Mean [Parent] (nM) at 2 hrs, 37° C.” value ([1]; Inactive homogenate) was 154 nM, the “Bronchoconstriction, Lung Resistance (% Increase)” value (from here on “Bronchoconstriction … (% Increase)”) [2, 10] was 416 % Increase and the “Bronchoconstriction … (% Increase)” value [2, 11] was 224 % Increase. The “Bronchoconstriction … (% Increase)” value [2, 12] was 146 % Increase, the “Bronchoconstriction … (% Increase)” value [2, 13] was 69 % Increase and the “Bronchoconstriction … (% Increase)” value [2, 14] was 21 % Increase. For the same molecule, the “Bronchoconstriction … (% Increase)” value [2, 15] was 44 % Increase, the “Bronchoconstriction … (% Increase)” value [2, 16] was 66 % Increase and the “Bronchoconstriction … (% Increase)” value [2, 17] was 71 % Increase. The “Bronchoconstriction … (% Increase)” value [2, 18] was 65 % Increase, the “Bronchoconstriction … (% Increase)” value [2, 19] was 62 % Increase and the “Bronchoconstriction … (% Increase)” value [2, 20] was 50 % Increase. For the same molecule, the “Hyperreactivity PC400” value [2, 21] was 28.3 carbachol breath units, the “Hyperreactivity PC400” value [2, 22] was 21.5 carbachol breath units and the “Bronchoconstriction … (% Increase)” value ([2]; Predosing regimen (last dose 1 hr before antigen), Post-Ascaris, Example 52 4.7 mg, ciclesonide 2.2 mg, n=2) was 305 % Increase. The “Bronchoconstriction … (% Increase)” value ([2]; Predosing regimen, 1 hour, n=2) was 142 % Increase, the “Bronchoconstriction … (% Increase)” value ([2]; Predosing regimen, 2 hours, n=2) was 44 % Increase and the “Bronchoconstriction … (% Increase)” value ([2]; Predosing regimen, 3 hours, n=2) was 8 % Increase. The “Bronchoconstriction … (% Increase)” value ([2]; Predosing regimen, 4 hours, n=2) was 6 % Increase, the “Bronchoconstriction … (% Increase)” value ([2]; Predosing regimen, 5 hours, n=2) was 14 % Increase and the “Bronchoconstriction … (% Increase)” value ([2]; Predosing regimen, 6 hours, n=2) was 28 % Increase. The “Bronchoconstriction … (% Increase)” value ([2]; Predosing regimen, 6.5 hours, n=2) was 12 % Increase, the “Bronchoconstriction … (% Increase)” value ([2]; Predosing regimen, 7 hours, n=2) was 28 % Increase and the “Bronchoconstriction … (% Increase)” value ([2]; Predosing regimen, 7.5 hours, n=2) was 33 % Increase. For the same molecule, the “Bronchoconstriction … (% Increase)” value ([2]; Predosing regimen, 8 hours, n=2) was 15 % Increase, the “Hyperreactivity PC400” value ([2]; Predosing regimen, Baseline, Example 52 4.7 mg, ciclesonide 2.2 mg, n=2) was 26.5 carbachol breath units and the “Hyperreactivity PC400” value ([2]; Predosing regimen, Post-Antigen (24 hours after challenge), n=2) was 25.5 carbachol breath units. The “Effect on late phase bronchoconstriction and development of airway hyperreactivity” value [2] was “reduced efficacy”, the IL-1α ([3]; 0.31 mg/kg i.t.) was 5.25 ± 0.85 pg/mL and the MIP-1α ([3]; 0.31 mg/kg i.t.) was 8.31 ± 1.17 pg/mL. For the same molecule, the Neutrophils ([3]; 0.31 mg/kg i.t.) was 13.9 ± 2.1 ×10^4/ml, the IL-1α [3, 23] was 5.50 ± 0.96 pg/mL and the MIP-1α [3, 23] was 10.02 ± 1.75 pg/mL. For the same molecule, the Neutrophils [3, 23] was 15.0 ± 1.5 ×10^4/ml, the “Eosinophils in BAL, Mean” value [4] was 60170 mL⁻¹ and the “Neutrophils in BAL, Mean” value [4] was 4790 mL⁻¹. For the same molecule, the “Pulmonary Resistance (% of Baseline)” value [5, 24] was 302.3 ± 24.8 % of Baseline, the Neutrophils ([6]; 3 mg/kg intratracheal, 1 hour prior to LPS, rat BAL, mean ± s.e.m.) was 9.7 ± 0.89 × 10^4/ml and the TNFα ([6]; 3 mg/kg intratracheal, rat BAL, mean ± s.e.m.) was 629.2 ± 330.0 pg/mL. For the same molecule, the “Inhibition of LPS-induced airway inflammation measured as neutrophil influx and TNFα production” value ([6]; at doses tested, versus vehicle control) was “significantly inhibit”.

In the case of `CCN(CC)Cc1ccc(C(=O)OCC(=O)[C@@]23O[C@H](C4CCCCC4)O[C@@H]2C[C@H]2[C@@H]4CCC5=CC(=O)C=C[C@]5(C)[C@H]4[C@@H](O)C[C@@]23C)cc1` [Example 30, 4-Diethylaminomethylbenzoic acid [[11β,16α]-[[((R)-cyclohexylmethylene)bis(oxy)]-11-hydroxypregna-1,4-diene-3,20-dion-21-yl]]ester], the “Mean [Parent] (nM) at 2 hrs, 37° C.” value ([1]; Active homogenate) is reported as 102 nM, the “Mean % compound remaining” value ([1]; Active rat lung homogenate) is reported as 46% and the “Mean % compound remaining” value [1, 9] is reported as 51%. The “Mean [Parent] (nM) at 2 hrs, 37° C.” value ([1]; Inactive homogenate) was 109 nM and the melting point was 123.5 °C (dec.).

With `OCc1cc(C(O)CNCCCCCCOCCCCc2ccccc2)ccc1O` (stereo not drawn) [Salmeterol Xinafoate, salmeterol xinafoate] the “Bronchoconstriction … (% Increase)” value [2, 10] was 370 % Increase, the “Bronchoconstriction … (% Increase)” value [2, 11] was 213 % Increase and the “Bronchoconstriction … (% Increase)” value [2, 12] was 114 % Increase. The “Bronchoconstriction … (% Increase)” value [2, 13] was 64 % Increase, the “Bronchoconstriction … (% Increase)” value [2, 14] was 25 % Increase and the “Bronchoconstriction … (% Increase)” value [2, 15] was 54 % Increase. For the same molecule, the “Bronchoconstriction … (% Increase)” value [2, 16] was 86 % Increase, the “Bronchoconstriction … (% Increase)” value [2, 17] was 85 % Increase and the “Bronchoconstriction … (% Increase)” value [2, 18] was 83 % Increase. For the same molecule, the “Bronchoconstriction … (% Increase)” value [2, 19] was 76 % Increase, the “Bronchoconstriction … (% Increase)” value [2, 20] was 72 % Increase and the “Hyperreactivity PC400” value [2, 21] was 29.5 carbachol breath units. The “Hyperreactivity PC400” value [2, 22] was 22.8 carbachol breath units, the IL-1α ([3]; 0.57 mg/kg i.t.) was 4.22 ± 0.73 pg/mL and the MIP-1α ([3]; 0.57 mg/kg i.t.) was 6.09 ± 1.38 pg/mL. For the same molecule, the Neutrophils ([3]; 0.57 mg/kg i.t.) was 10.9 ± 2.5 ×10^4/ml, the “Pulmonary Resistance (% of Baseline)” value ([5]; 3 μg/kg by inhalation) was 265.6 ± 38.8 % of Baseline and the “Pulmonary Resistance (% of Baseline)” value [5, 24] was 177.8 ± 14.4 % of Baseline.

With `OCc1cc(C(O)CNCCCCCCOCCCCc2ccccc2)ccc1O` (stereo not drawn) [salmeterol] the “Effect on late phase bronchoconstriction and development of airway hyperreactivity” value [2] was “reduced efficacy”, the “Lung Resistance (% Increase) at 2% Carbachol” value ([7]; Duration of action regimen (last dose 24 hours before carbachol), Ciclesonide 2.2 mg + Salmeterol Xinafoate 2.5 mg) was 594 ± 56 % Increase and the “Lung Resistance (% Increase) at 2% Carbachol” value ([7]; Predosing regimen (last dose 1 hr before carbachol)) was 352 ± 27 % Increase. For the same molecule, the “Plasma Conc” value ([8]; analyte after IT administration of Example 52, 3 mg/kg, 0.5 hr) was “BLQ”, the “Plasma Conc” value ([8]; analyte after IT administration of Example 52, 3 mg/kg, 2.0 hr) was “BLQ” and the “Plasma Conc” value ([8]; analyte after IT administration of Example 52, 3 mg/kg, 4.0 hr) was “BLQ”. The “BALF Conc” value [8, 25] was “BLQ”, the “Plasma Conc” value [8, 25] was “BLQ” and the “BALF Conc” value [8, 26] was “BLQ”. The “Plasma Conc” value [8, 26] was “BLQ”, the “BALF Conc” value [8, 27] was “BLQ” and the “Plasma Conc” value [8, 27] was “BLQ”.
